Biological target: T1, PheRS (Escherichia coli, UniProt P08312)
T1 construct: endogenous in cells; host or cells: cell-free extract (lysate) of E. coli strain KGK10
Experiment: Inhibition of the rate of cell-free synthesis of turboGFP by Phe-SA
Assay type: biochemical, E. coli
Details: cell-free synthesis of turboGFPY50TAG with pAF-tRNACUA^Phe
Method: A modified “run-off procedure” was used to prepare the cell-free extract. Fermentation volume to generate sufficient cell-free extract was typically 2.5× the desired cell-free reaction volume. To inactivate the reducing activity of the cell extract, iodoacetamide (IAM) at various concentrations was added as previously described (Yang, Kanter et al. (2004) Biotechnol Prog, 20, 1689-96). Gene expression was under the control of the T7 promoter. In order to facilitate translation initiation, genes were synthesized (DNA 2.0, Menlo Park, Calif.) with synonymous codons at the 5′ end of the gene with ATG start codon (N-terminal methionine residue) optimized for mRNA instability as measured by mRNA ΔGfold in the −6 to +37 positions (Kudla, Murray et al. (2009) Science, 324, 255-258) and rare codons were replaced.
Cell-free reactions were run at 30° C. containing 8 mM magnesium glutamate, 10 mM ammonium glutamate, 130 mM potassium glutamate, 35 mM sodium pyruvate, 1.2 mM AMP, 0.86 mM each of GMP, UMP, & CMP, 2 mM amino acids (1 mM for tyrosine), 4 mM sodium oxalate, 1 mM putrescine, 1.5 mM spermidine, 15 mM potassium phosphate, 100 nM T7 RNA polymerase, 2-50 nM DNA template(s), 1-10 μM E. coli DsbC, and 24-30% (v/v) IAM-treated cell-free extract.

T1 sequence (P07395 whole entry): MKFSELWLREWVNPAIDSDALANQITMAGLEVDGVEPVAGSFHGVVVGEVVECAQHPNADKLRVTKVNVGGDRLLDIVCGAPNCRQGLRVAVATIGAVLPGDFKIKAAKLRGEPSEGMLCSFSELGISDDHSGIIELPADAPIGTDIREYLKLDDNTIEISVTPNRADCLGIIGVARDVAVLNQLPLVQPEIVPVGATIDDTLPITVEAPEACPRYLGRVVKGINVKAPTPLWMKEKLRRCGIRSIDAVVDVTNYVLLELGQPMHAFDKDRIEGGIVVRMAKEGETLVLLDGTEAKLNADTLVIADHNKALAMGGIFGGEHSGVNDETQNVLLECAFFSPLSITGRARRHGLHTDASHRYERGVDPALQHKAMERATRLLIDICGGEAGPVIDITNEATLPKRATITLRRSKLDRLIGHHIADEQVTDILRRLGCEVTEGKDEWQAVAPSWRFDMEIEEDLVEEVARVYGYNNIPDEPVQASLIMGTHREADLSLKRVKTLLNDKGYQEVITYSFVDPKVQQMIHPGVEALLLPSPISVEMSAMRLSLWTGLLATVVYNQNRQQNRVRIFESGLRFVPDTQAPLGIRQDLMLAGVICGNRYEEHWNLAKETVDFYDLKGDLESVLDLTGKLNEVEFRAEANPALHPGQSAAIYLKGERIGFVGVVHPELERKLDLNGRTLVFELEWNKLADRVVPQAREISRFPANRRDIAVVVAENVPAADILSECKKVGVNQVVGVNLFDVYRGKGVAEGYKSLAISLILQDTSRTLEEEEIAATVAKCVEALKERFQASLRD
T1 sequence (P08312 whole entry): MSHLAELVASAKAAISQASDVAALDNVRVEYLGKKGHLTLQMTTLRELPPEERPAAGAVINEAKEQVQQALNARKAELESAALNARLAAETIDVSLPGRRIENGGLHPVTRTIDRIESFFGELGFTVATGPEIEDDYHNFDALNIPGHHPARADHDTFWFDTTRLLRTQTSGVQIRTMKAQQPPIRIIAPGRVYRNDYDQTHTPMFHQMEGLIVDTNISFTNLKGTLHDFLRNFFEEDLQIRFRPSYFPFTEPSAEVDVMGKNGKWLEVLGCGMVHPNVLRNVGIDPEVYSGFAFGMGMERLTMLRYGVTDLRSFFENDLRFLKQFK

## Nc1ncnc2c1ncn2[C@@H]1O[C@H](COS(=O)(=O)NC(=O)[C@@H](N)Cc2ccccc2)[C@@H](O)[C@H]1O [Phe-SA, 5′-O—[N-(Phenylalanyl)sulfamoyl]adenosine]
  time after which the inhibitor begins to lose its effectiveness: 7 to 8 h

Reference: patent US8778631B2, “Mono charging system for selectively introducing non-native amino acids into proteins using an in vitro protein synthesis system” (priority 2009, dated 2014)
